Results as given in US20240327393A1 (SIRONAX LTD., priority 2021, published 2024).

What follows are compounds tested on HT-1080 (ATCC, CCL-121) cells (assay: HT-1080 cell viability assay with ferroptosis inducer RSL3 (Cell Titer-Glo)). Conditions: Homo sapiens; HT-1080 cells treated with RSL3; 3-fold, 10-point dilution, 1.1 μM highest concentration; Table 2; read-out: EC50 (nM), ferroptosis inhibitory activity.
Assay type: cell-based
Experimental: Example 2. Determination of EC50 Values in HT-1080 Cell Viability Assay
HT-1080 (ATCC, CCL-121) cells (6000 in 100 μl) were seeded in 96-well plates (Corning) and cultured in a 37° C. incubator with a humidified atmosphere of 5% CO2 for overnight. Cells were then treated with ferroptosis inducer RSL3 (TargetMol) and a 3-fold, 10-point serial dilution series of compounds with 1.1 μM as the highest concentration, […]. Cell viability was assessed using the Cell Titer-Glo Kit (Promega). The luminescence intensity was measured with a microplate reader (Envision, PerkinElmer), and cell viability was calculated by normalizing the data to untreated controls. The EC50 values of the compounds (e.g., Compounds 1-659) were calculated in GraphPad Prism (GraphPad Software, Inc., San Diego, CA, USA). The curves were fitted using a non-linear regression model with a sigmoidal dose response.

| Structure (SMILES) | EC50 |
| --- | --- |
| CC(C)(C)C(=O)N1CCOc2cc(Nc3ccc(N4CCC(C(F)(F)F)CC4)cc3)ccc21 [Compound 18, 2,2-dimethyl-1-(7-((4-(4-(trifluoromethyl)piperidin-1-yl)phenyl)amino)-2,3-dihydro-4H-benzo[b][1,4]oxazin-4-yl)propan-1-one] | 0.1 to 100 nM |
| CNc1cc(Nc2ccc3c(c2)OCC(=O)N3C)ccc1N1CC(C)OC(C)C1 (stereo not drawn) [Compound 19, 7-((4-(2,6-dimethylmorpholino)-3-(methylamino)phenyl)amino)-4-methyl-2H-benzo[b][1,4]oxazin-3(4H)-one] | 0.1 to 100 nM |
| CC1CN(c2ccc(Nc3ccc4c(c3)OCC(=O)N4C)cc2N(C)C)CC(C)O1 (stereo not drawn) [Compound 20, 7-((3-(dimethylamino)-4-(2,6-dimethylmorpholino)phenyl)amino)-4-methyl-2H-benzo[b][1,4]oxazin-3(4H)-one] | 0.1 to 100 nM |
| CCN1C(=O)COc2cc(Nc3ccc(N4CCC(C(F)(F)F)CC4)nc3)ccc21 [Compound 24, 4-ethyl-7-((6-(4-(trifluoromethyl)piperidin-1-yl)pyridin-3-yl)amino)-2H-benzo[b][1,4]oxazin-3(4H)-one] | 0.1 to 100 nM |
| CC(C)(C)NC(=O)N1CCOc2cc(Nc3ccc(N4CCC(C(F)(F)F)CC4)cc3)ccc21 [Compound 25] | 0.1 to 100 nM |
| Cc1nc(N2CCC(C(F)(F)F)CC2)ccc1Nc1ccc2c(c1)OCC(=O)N2C [Compound 26, 4-methyl-7-((2-methyl-6-(4-(trifluoromethyl)piperidin-1-yl)pyridin-3-yl)amino)-2H-benzo[b][1,4]oxazin-3(4H)-one] | 0.1 to 100 nM |
| CN1C(=O)COc2cc(Nc3cnc(N4CCC(C(F)(F)F)CC4)c(F)c3)ccc21 [Compound 27, 7-((5-fluoro-6-(4-(trifluoromethyl)piperidin-1-yl)pyridin-3-yl)amino)-4-methyl-2H-benzo[b][1,4]oxazin-3(4H)-one] | 0.1 to 100 nM |
| CCCCCN(CC)c1ccc(Nc2ccc3c(c2)OCC(=O)N3C)cc1 [Compound 30, 7-((4-(ethyl(pentyl)amino)phenyl)amino)-4-methyl-2H-benzo[b][1,4]oxazin-3(4H)-one] | 0.1 to 100 nM |
| CCN(CCCOC)c1ccc(Nc2ccc3c(c2)OCC(=O)N3C)cc1 [Compound 31, 7-((4-(ethyl(3-methoxypropyl)amino)phenyl)amino)-4-methyl-2H-benzo[b][1,4]oxazin-3(4H)-one] | 0.1 to 100 nM |
| CCCCCOc1ccc(Nc2ccc3c(c2)OCC(=O)N3C)cc1OC [Compound 32, 7-((3-methoxy-4-(pentyloxy)phenyl)amino)-4-methyl-2H-benzo[b][1,4]oxazin-3(4H)-one] | 0.1 to 100 nM |
| CC(C)C1CCN(c2ncc(Nc3ccc4c(c3)OCC(=O)N4C)cn2)CC1 [Compound 36, 7-((2-(4-isopropylpiperidin-1-yl)pyrimidin-5-yl)amino)-4-methyl-2H-benzo[b][1,4]oxazin-3(4H)-one] | 0.1 to 100 nM |
| CN1C(=O)COc2cc(Nc3ccc4c(c3)CCCC4(C)C)ccc21 [Compound 37, 7-((5,5-dimethyl-5,6,7,8-tetrahydronaphthalen-2-yl)amino)-4-methyl-2H-benzo[b][1,4]oxazin-3(4H)-one] | 0.1 to 100 nM |
| CN1C(=O)COc2cc(Nc3ccc4c(c3)C(C)(C)CC4(C)C)ccc21 [Compound 39, 4-methyl-7-((1,1,3,3-tetramethyl-2,3-dihydro-1H-inden-5-yl)amino)-2H-benzo[b][1,4]oxazin-3(4H)-one] | 100 to 1000 nM |
| NC(=O)NCCN1C(=O)COc2cc(Nc3ccc(N4CCC(C(F)(F)F)CC4)cc3)ccc21 [Compound 40, 1-(2-(3-oxo-7-((4-(4-(trifluoromethyl)piperidin-1-yl)phenyl)amino)-2,3-dihydro-4H-benzo[b][1,4]oxazin-4-yl)ethyl)urea] | 0.1 to 100 nM |
| CN1C(=O)COc2cc(Nc3ccc4c(c3)CCC4(C)C)ccc21 [Compound 42, 7-((1,1-dimethyl-2,3-dihydro-1H-inden-5-yl)amino)-4-methyl-2H-benzo[b][1,4]o xazin-3(4H)-one] | 0.1 to 100 nM |
| CNCCCN1C(=O)COc2cc(Nc3ccc(N4CC(C)OC(C)C4)cc3)ccc21 (stereo not drawn) [Compound 45, 7-((4-(2,6-dimethylmorpholino)phenyl)amino)-4-(3-(methylamino)propyl)-2H-benzo[b][1,4]oxazin-3(4H)-one] | 0.1 to 100 nM |
| NC(=O)CCCN1C(=O)COc2cc(Nc3ccc(N4CCC(C(F)(F)F)CC4)cc3)ccc21 [Compound 46, 4-(3-oxo-7-((4-(4-(trifluoromethyl)piperidin-1-yl)phenyl)amino)-2,3-dihydro-4H-benzo[b][1,4]oxazin-4-yl)butanamide] | 0.1 to 100 nM |
| CNCCN1C(=O)COc2cc(Nc3ccc(C(C)(C)C)cc3)ccc21 [Compound 48, 7-((4-(tert-butyl)phenyl)amino)-4-(2-(methylamino)ethyl)-2H-benzo[b][1,4]oxazin-3(4H)-one] | 0.1 to 100 nM |
| CN1C(=O)COc2cc(Nc3ccc4c(c3)CC(C)(C)C4)ccc21 [Compound 49, 7-((2,2-dimethyl-2,3-dihydro-1H-inden-5-yl)amino)-4-methyl-2H-benzo[b][1,4] oxazin-3(4H)-one] | 0.1 to 100 nM |
| CNCCCN1C(=O)COc2cc(Nc3ccc(N4CC(C)OC(C)C4)cc3C)ccc21 (stereo not drawn) [Compound 50, 7-((4-(2,6-dimethylmorpholino)-2-methylphenyl)amino)-4-(3-(methylamino)propyl)-2H-benzo[b][1,4]oxazin-3(4H)-one] | 0.1 to 100 nM |

Further lines, results first:

| EC50 | Structure (SMILES) |
| --- | --- |
| 0.1 to 100 nM | NC(=O)CCN1C(=O)COc2cc(Nc3ccc(N4CCC(C(F)(F)F)CC4)cc3)ccc21 [Compound 15, 3-(3-oxo-7-((4-(4-(trifluoromethyl)piperidin-1-yl)phenyl)amino)-2,3-dihydro-4H-benzo[b][1,4]oxazin-4-yl)propanamide] |
| 0.1 to 100 nM | CCN1C(=O)COc2cc(Nc3ccc(N4CCC(C(F)(F)F)CC4)cc3)ccc21 [Compound 16, 4-ethyl-7-((4-(4-(trifluoromethyl)piperidin-1-yl)phenyl)amino)-2H-benzo[b][1,4]oxazin-3(4H)-one] |
| 0.1 to 100 nM | CN1C(=O)COc2cc(Nc3ccc(N4CCC(C(F)(F)F)CC4)nc3)ccc21 [Compound 17, 4-methyl-7-((6-(4-(trifluoromethyl)piperidin-1-yl)pyridin-3-yl)amino)-2H-benzo[b][1,4]oxazin-3(4H)-one] |
| 0.1 to 100 nM | CN1C(=O)COc2cc(Nc3ccc(N4CC5(CCC5)C4)cc3)ccc21 [Compound 21, 7-((4-(2-azaspiro[3.3]heptan-2-yl)phenyl)amino)-4-methyl-2H-benzo[b][1,4]oxazin-3(4H)-one] |
| 0.1 to 100 nM | CCN(CC)c1ccc(Nc2ccc3c(c2)OCC(=O)N3C)cc1 [Compound 22, 7-((4-(diethylamino)phenyl)amino)-4-methyl-2H-benzo[b][1,4]oxazin-3(4H)-one] |
| 0.1 to 100 nM | CN1C(=O)COc2cc(Nc3ccc(N4CCC(CF)CC4)cc3)ccc21 [Compound 23, 7-((4-(4-(fluoromethyl)piperidin-1-yl)phenyl)amino)-4-methyl-2H-benz o[b][1,4]oxazin-3(4H)-one] |
| 0.1 to 100 nM | CN1C(=O)COc2ccc(Nc3ccc(N4CCC(C(F)(F)F)CC4)cc3)cc21 [Compound 28, 4-methyl-6-((4-(4-(trifluoromethyl)piperidin-1-yl)phenyl)amino)-2H-benzo[b][1,4]oxazin-3(4H)-one] |
| 0.1 to 100 nM | CN1C(=O)COc2cc(Nc3ccc(N4CCCCC4)cc3)ccc21 [Compound 29] |
| 0.1 to 100 nM | CN1C(=O)COc2cc(Nc3ccc(F)c(N4CCC(C(F)(F)F)CC4)c3)ccc21 [Compound 33, 7-((4-fluoro-3-(4-(trifluoromethyl)piperidin-1-yl)phenyl)amino)-4-methyl-2H-benzo[b][1,4]oxazin-3(4H)-one] |
| 100 to 1000 nM | CN1C(=O)COc2cc(Nc3ccc(N4CCC(C(F)(F)F)CC4)cc3F)ccc21 [Compound 34, 7-((2-fluoro-4-(4-(trifluoromethyl)piperidin-1-yl)phenyl)amino)-4-methyl-2H-benzo[b][1,4]oxazin-3(4H)-one] |
| 0.1 to 100 nM | CN1C(=O)COc2cc(Nc3ccc(C4CCC(C)(C)CC4)cc3)ccc21 [Compound 35, 7-((4-(4,4-dimethylcyclohexyl)phenyl)amino)-4-methyl-2H-benzo[b][1,4]oxazin-3(4H)-one] |
| 0.1 to 100 nM | CCC(C)(C)c1ccc(Nc2ccc3c(c2)OCC(=O)N3C)cc1 [Compound 38, 4-methyl-7-((4-(tert-pentyl)phenyl)amino)-2H-benzo[b][1,4]oxazin-3(4H)-one] |
| 0.1 to 100 nM | CNCCCN1C(=O)COc2cc(Nc3ccc(N4CCC(C(F)(F)F)CC4)cc3)ccc21 [Compound 41, 4-(3-(methylamino)propyl)-7-((4-(4-(trifluoromethyl)piperidin-1-yl)phenyl)amino)-2H-benzo[b][1,4]oxazin-3(4H)-one] |
| 0.1 to 100 nM | CNCCN1C(=O)COc2cc(Nc3ccc(N4CCC(C(F)(F)F)CC4)cc3)ccc21 [Compound 43, 4-(2-(methylamino)ethyl)-7-((4-(4-(trifluoromethyl)piperidin-1-yl)phenyl)amino)-2H-benzo[b][1,4]oxazin-3(4H)-one] |
| 0.1 to 100 nM | CC1CN(c2ccc(Nc3ccc4c(c3)OCC(=O)N4C)cc2)CC(C)O1 (stereo not drawn) [Compound 44, 7-((4-(2,6-dimethylmorpholino)phenyl)amino)-4-methyl-2H-benzo[b][1,4]oxazin-3(4H)-one] |
| 0.1 to 100 nM | CN1C(=O)COc2cc(Nc3ccc(C(C)(C)C)cc3)ccc21 [Compound 47, 7-((4-(tert-butyl)phenyl)amino)-4-methyl-2H-benzo[b][1,4]oxazin-3(4H)-one] |
